Data on 28 molecules can be found in US9260429B2, “Pyrido[3,4-B]indoles and methods of use” (Medivation Technologies, Inc., priority 2008, dated 2016).

The target of assay [1] is T1, human recombinant serotonin (5-Hydroxytryptamine) 5-HT7 receptor (Homo sapiens, UniProt P34969).
T1 construct: expressed in transfected cells; host or cells: CHO cells
In words: Serotonin 5-HT7 radioligand binding ([3H]LSD). The conditions noted are these: for inhibition at 0.003 µM: compound concentration 3 nM; for inhibition at 0.01 µM: compound concentration 10 nM; for inhibition at 0.03 µM: compound concentration 0.03 μM; for inhibition at 0.1 µM: compound concentration 0.1 μM; for inhibition at 0.3 µM: compound concentration 0.3 μM. In short, it runs like this:
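CHO-expressed human 5-HT7 receptor with 5.5 nM [3H]LSD in 50 mM Tris-HCl pH 7.4, 10 mM MgCl2, 0.5 mM EDTA, 2 h at 25 °C; nonspecific binding defined with serotonin. Filtration and counting. Compounds at ≤1 μM, 1% DMSO; % inhibition of specific binding.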

The target in assay [2] is T2, human recombinant dopamine D2L receptor (Homo sapiens, UniProt P14416).
T2 construct: expressed in transfected cells; host or cells: CHO cells
T2 sequence (P14416 whole entry): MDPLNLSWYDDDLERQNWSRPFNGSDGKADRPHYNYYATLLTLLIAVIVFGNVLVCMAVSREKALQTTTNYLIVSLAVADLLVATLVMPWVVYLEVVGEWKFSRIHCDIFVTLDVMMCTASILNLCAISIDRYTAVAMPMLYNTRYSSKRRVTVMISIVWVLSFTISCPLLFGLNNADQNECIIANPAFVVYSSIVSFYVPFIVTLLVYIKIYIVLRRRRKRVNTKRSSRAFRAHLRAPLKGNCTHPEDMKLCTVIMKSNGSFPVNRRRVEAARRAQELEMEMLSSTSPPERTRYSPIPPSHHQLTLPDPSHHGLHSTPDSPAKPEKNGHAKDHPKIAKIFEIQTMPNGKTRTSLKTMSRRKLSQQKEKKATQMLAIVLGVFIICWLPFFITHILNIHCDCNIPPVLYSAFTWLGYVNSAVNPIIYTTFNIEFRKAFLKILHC
Description: Dopamine D2L radioligand binding ([3H]Spiperone). Conditions: for inhibition at 3 µM: compound concentration 3 μM; for inhibition at 10 µM: compound concentration 10 μM. A digest of the protocol: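 CHO-expressed receptor in 50 mM Tris-HCl pH 7.4 with ascorbic acid, 0.001% BSA, 150 mM NaCl; 0.16 nM [3H]spiperone, 120 min at 25 °C; nonspecific binding with haloperidol.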

Assay [3] deals with rat central imidazoline I2 receptor. Description: Central imidazoline I2 radioligand binding ([3H]Idazoxan). Conditions: inhibition of specific [3H]Idazoxan binding. As for the experimental part: To evaluate in radioligand binding assays the activity of compounds of the invention, rat central imidazoline I2 receptor obtained from Wistar Rat cerebral cortex (Brown, C. M. et al., Br. J. Pharmacol. 99:803, 1990) in a modified Tris-HCl buffer (50 mM Tris-HCl buffer, pH 7.4, 0.5 mM EDTA) was used. Compounds of the invention were incubated with 2 nM [^3H]Idazoxan for 30 minutes at 25° C. Non-specific binding was estimated in the presence of 1 μM Idazoxan. Receptor proteins were filtered and washed, the filters were then counted to determine [^3H]Idazoxan specifically bound. Compounds were screened at 1 μM or lower, using 1% DMSO as vehicle. Compounds of the invention were tested in this biochemical assay and percent inhibition of specific binding was determined.

The mark [4] stands for this setting: 2 h, read-out: Percent Inhibition of ligand binding Serotonin (1 μM ligand concentration) 5-HT7.
The mark [5] stands for this setting: 2 h, 1 μM ligand conc., read-out: Percent Inhibition of ligand binding Dopamine (1 μM ligand conc.) D2L.
[6] abbreviates: compound concentration 1 μM, read-out: Percentage inhibition of ligand binding to D2L receptor.
Setting [7] is: read-out: Percentage inhibition of ligand binding to D2L receptor.
The mark [8] stands for this setting: read-out: Percentage inhibition of ligand binding to 5-HT7 receptor.

Where two headings read alike, the source gives them in different places.

T1 sequence (P34969 whole entry): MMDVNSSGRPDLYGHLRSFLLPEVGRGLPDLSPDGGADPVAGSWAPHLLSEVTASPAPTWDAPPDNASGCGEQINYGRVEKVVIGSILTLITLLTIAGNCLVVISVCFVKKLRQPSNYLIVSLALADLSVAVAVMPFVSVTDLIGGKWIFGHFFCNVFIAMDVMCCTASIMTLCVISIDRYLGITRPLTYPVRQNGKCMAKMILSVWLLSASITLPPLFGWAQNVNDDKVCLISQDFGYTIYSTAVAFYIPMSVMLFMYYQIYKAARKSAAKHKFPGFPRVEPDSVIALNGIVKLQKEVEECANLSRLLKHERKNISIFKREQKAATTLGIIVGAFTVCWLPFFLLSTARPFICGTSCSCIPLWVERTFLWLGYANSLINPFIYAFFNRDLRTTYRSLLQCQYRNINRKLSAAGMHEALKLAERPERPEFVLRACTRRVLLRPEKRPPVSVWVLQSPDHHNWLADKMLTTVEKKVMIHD

On to `C/C(=C/n1c2c(c3cc(C)ccc31)CCN(C)C2C)c1ccccc1F` (centres unmarked) [Compound 165], for which the figures for the inhibition at 1 µM in assay [1] (setting [4]) and in assay [2] (setting [5]) were 91% and 6%, respectively.

With `CCC1c2c(c3cc(C)ccc3n2C(=O)Cc2ccc(F)cc2)CCN1C` (centres unmarked) [Compound 159], the results for the inhibition at 1 µM in assay [1] (setting [4]) and in assay [2] (setting [5]) were 49% and -9%, respectively.

Consider `C/C(=C\n1c2c(c3cc(C)ccc31)CCN(C)C2C)c1ccc(Cl)cc1` (centres unmarked) [Compound 161, 9-(2-(4-chlorophenyl)prop-1-enyl)-1,2,6-trimethyl-2,3,4,9-tetrahydro-1H-pyrido[3,4-b]indole], for which the figures for the inhibition at 1 µM in assay [1] (setting [4]) and in assay [2] (setting [5]) were 93% and 0%, respectively.

`CCC1c2c(c3cc(C)ccc3n2/C=C(\C)c2ccc(Cl)cc2)CCN1C` (centres unmarked) [Compound 160, 9-(2-(4-chlorophenyl)prop-1-enyl)-1-ethyl-2,6-dimethyl-2,3,4,9-tetrahydro-1H-pyrido[3,4-b]indole]: the inhibition at 1 µM in assay [1] (setting [4]) was 84%; in assay [2] (setting [5]) it was -1%.

On to `CCC1c2c(c3cc(Cl)ccc3n2C#Cc2ccc(F)cc2)CCN1C` (centres unmarked) [Compound 129], for which the figures for the inhibition at 1 µM in assay [1] (setting [4]) and in assay [2] (setting [5]) were 15% and -8%, respectively.

Turning to `C/C(=C\n1c2c(c3cc(C)ccc31)CCN(C)C2C)c1ccccc1F` (centres unmarked) [Compound 166], the inhibition at 1 µM in assay [1] (setting [4]) amounted to 92%; in assay [1] (compound concentration 1 μM, read-out: Percentage inhibition of ligand binding to 5-HT7 receptor) it was 92%; in assay [2] (setting [5]), 21%; in assay [2] (setting [6]), 21%. The inhibition at 3 µM in assay [2] (setting [7]) was 12%. In addition, the inhibition at 10 µM in assay [2] (setting [7]) amounted to 50%.

For `CCC1c2c(c3cc(Cl)ccc3n2CC(C)(O)c2ccc(F)cc2)CCN1C` (centres unmarked) [Compound 79], the inhibition at 1 µM in assay [1] (setting [4]) was found to be 85%; in assay [2] (setting [5]) it was 2%.

Turning to `CCC1c2c(c3cc(C)ccc3n2C#Cc2ccc(Cl)cc2)CCN1C` (centres unmarked) [Compound 162, 9-((4-chlorophenyl)ethynyl)-1-ethyl-2,6-dimethyl-2,3,4,9-tetrahydro-1H-pyrido[3,4-b]indole], the inhibition at 1 µM in assay [1] (setting [4]) was determined as 27%; in assay [2] (setting [5]), 4%.

As to `CN1CCc2c(n(CCc3ccc(F)cc3)c3ccc(Cl)cc23)C1` [Compound 3, 9-(4-fluorophenethyl)-6-chloro-2,3,4,9-tetrahydro-2-methyl-1H-pyrido[3,4-b]indole], in assay [3], the “Binding data (Percentage Inhibition) Imidazoline I2 Central (1 μM)” value amounted to 20%. In addition, in assay [2] (setting [5]), the inhibition at 1 µM stood at 47%.

`C/C(=C/n1c2c(c3cc(Cl)ccc31)CCN(C)C2C)c1ccccc1F` (centres unmarked) [Compound 167]: the results for the inhibition at 1 µM in assay [1] (setting [4]) and in assay [2] (setting [5]) were 97% and 22%, respectively.

With `C/C(=C\n1c2c(c3cc(Cl)ccc31)CCN(C)C2C)c1ccccc1F` (centres unmarked) [Compound 168], the inhibition at 1 µM is 84% in assay [1] (setting [4]) and 9% in assay [2] (setting [5]).

Regarding `Cc1ccc(CCn2c3c(c4cc(Cl)ccc42)CCN(C)C3C)cn1` (centres unmarked) [Compound 80], the inhibition at 1 µM in assay [1] (setting [4]) stood at 82%; in assay [2] (setting [5]), 5%.

Consider `C/C(=C\n1c2c(c3cc(Cl)ccc31)CCN(C)C2C)c1ccc(Cl)cc1` (centres unmarked) [Compound 99, 6-chloro-9-(2-(4-chlorophenyl)prop-1-enyl)-1,2-dimethyl-2,3,4,9-tetrahydro-1H-pyrido[3,4-b]indole], for which the inhibition at 1 µM in assay [1] (setting [4]) was 68%; in assay [2] (setting [5]), -7%.

As to `CC1c2c(c3cc(Cl)ccc3n2CCc2ccc(F)cc2)CCN1C` (centres unmarked) [Compound 81], the inhibition at 1 µM in assay [1] (setting [4]) is 82%; in assay [2] (setting [5]), 21%.

Turning to `Cc1ccc2c(c1)c1c(n2CCc2ccc(C)nc2)CN(C)CC1` [Compound 1, 2,3,4,9-tetrahydro-2,6-dimethyl-9-(2-(6-methylpyridin-3-yl)ethyl)-1H-pyrido[3,4-b]indole], the “Binding data (Percentage Inhibition) Imidazoline I2 Central (1 μM)” value in assay [3] came out at 40%. Further, in assay [2] (setting [5]), the inhibition at 1 µM is 6%.

Consider `C/C(=C\n1c2c(c3cc(C)ccc31)CCN(C)C2)c1ccc(Cl)cc1` [Compound 97, 9-(2-(4-chlorophenyl)prop-1-enyl)-2,6-dimethyl-2,3,4,9-tetrahydro-1H-pyrido[3,4-b]indole], for which the inhibition at 1 µM is 98% in assay [1] (setting [4]) and 15% in assay [2] (setting [5]).

In the case of `CC1CCN(C(=O)Cn2c3c(c4cc(Cl)ccc42)CCN(C)C3)CC1` [Compound 38, 2-(6-chloro-1,2,3,4-tetrahydro-2-methylpyrido[3,4-b]indol-9-yl)-1-(4-methylpiperidin-1-vyl)ethanone], the “Binding data (Percentage Inhibition) Imidazoline I2 Central (1 μM)” value in assay [3] was found to be 33%. The inhibition at 1 µM in assay [2] (setting [5]) is -8%.

In the case of `C/C(=C\n1c2c(c3cc(C)ccc31)CCN(C)C2)c1ccc(F)cc1` [Compound 91, (E)-9-(2-(4-fluorophenyl)prop-1-enyl)-2,6-dimethyl-2,3,4,9-tetrahydro-1H-pyrido[3,4-b]indole], in assay [1] (setting [8]), the inhibition at 0.003 µM came out at 19%, the inhibition at 0.01 µM was 36%, the inhibition at 0.03 µM was found to be 53% and the inhibition at 0.1 µM was 83%. In assay [1] (setting [8]), the inhibition at 0.3 µM came to 87%. Also, the inhibition at 1 µM in assay [2] (setting [5]) amounted to 27%. Also, in assay [2] (setting [6]), the inhibition at 1 µM is 44%. Moreover, in assay [2] (setting [7]), the inhibition at 3 µM came to 64% and the inhibition at 10 µM was determined as 91%.

For the molecule `CC1c2c(c3cc(Cl)ccc3n2C#Cc2ccc(F)cc2)CCN1C` (centres unmarked) [Compound 128], the inhibition at 1 µM in assay [1] (setting [4]) was 24%; in assay [2] (setting [5]), 14%.

Regarding `C#CCn1c2c(c3cc(Cl)ccc31)CCN(C)C2` [Compound 125, 6-chloro-2,3,4,9-tetrahydro-2-methyl-9-(prop-2-yn1)-1H-pyrido[3,4-b]indole], the “Binding data (Percentage Inhibition) Imidazoline I2 Central (1 μM)” value in assay [3] worked out at 60%. Besides, the inhibition at 1 µM in assay [2] (setting [5]) amounted to 19%.

In the case of `Cc1ccc2c(c1)c1c(n2C(=O)Cc2ccc(Cl)cc2)C(c2ccccc2)N(C)CC1` (centres unmarked) [Compound 163], the results for the inhibition at 1 µM in assay [1] (setting [4]) and in assay [2] (setting [5]) were 29% and -12%, respectively.

As to `CCC1c2c(c3cc(Cl)ccc3n2CCc2ccc(F)cc2)CCN1C` (centres unmarked) [Compound 78], the values for the inhibition at 1 µM in assay [1] (setting [4]) and in assay [2] (setting [5]) were 99% and 11%, respectively.

On to `CCC1c2c(c3cc(Cl)ccc3n2/C=C(\C)c2ccc(Cl)cc2)CCN1C` (centres unmarked) [Compound 100, 6-chloro-9-(2-(4-chlorophenyl)prop-1-enyl)-1-ethyl-2-methyl-2,3,4,9-tetrahydro-1H-pyrido[3,4-b]indole], for which the results for the inhibition at 1 µM in assay [1] (setting [4]) and in assay [2] (setting [5]) were 42% and -11%, respectively.

Consider `CC1c2c(c3cc(Cl)ccc3n2C#Cc2ccc(Cl)cc2)CCN1C` (centres unmarked) [Compound 132, 6-chloro-9-((4-chlorophenyl)ethynyl)-1,2-dimethyl-2,3,4,9-tetrahydro-1H-pyrido[3,4-b]indole], for which the inhibition at 1 µM in assay [1] (setting [4]) was 35%; in assay [2] (setting [5]), -6%.

Consider `C/C(=C\n1c2c(c3cc(Cl)ccc31)CCN(C)C2)c1ccc(Cl)cc1` [Compound 98, 6-chloro-9-(2-(4-chlorophenyl)prop-1-enyl)-2-methyl-2,3,4,9-tetrahydro-1H-pyrido[3,4-b]indole], for which the figures for the inhibition at 1 µM in assay [1] (setting [4]) and in assay [2] (setting [5]) were 94% and 32%, respectively.

For the molecule `C/C(=C\n1c2c(c3cc(Cl)ccc31)CCN(C)C2)c1ccc(F)cc1` [Compound 90, (E)-6-chloro-9-(2-(4-fluorophenyl)prop-1-enyl)-2-methyl-2,3,4,9-tetrahydro-1H-pyrido[3,4-b]indole], in assay [1] (setting [8]), the inhibition at 0.003 µM is -2%, the inhibition at 0.01 µM was 15%, the inhibition at 0.03 µM stood at 29% and the inhibition at 0.1 µM was determined as 63%. For the same molecule, the inhibition at 0.3 µM in assay [1] (setting [8]) was 86%. The inhibition at 1 µM in assay [2] (setting [5]) worked out at 36%. The inhibition at 1 µM in assay [2] (setting [6]) came out at 39%. Further, in assay [2] (setting [7]), the inhibition at 3 µM stood at 70% and the inhibition at 10 µM was 91%.

Take `Cc1ccc2c(c1)c1c(n2CCC2CCCCC2)CN(C)CC1` [Compound 2, 9-(2-cyclohexylethyl)-2,3,4,9-tetrahydro-2,6-dimethyl-1H-pyrido[3,4-b]indole]: the “Binding data (Percentage Inhibition) Imidazoline I2 Central (1 μM)” value in assay [3] is 18%. For the same molecule, in assay [2] (setting [5]), the inhibition at 1 µM is -7%.

For `C/C(=C\n1c2c(c3cc(C)ccc31)CCN(C)C2c1ccccc1)c1ccc(Cl)cc1` (centres unmarked) [Compound 164, 9-(2-(4-chlorophenyl)prop-1-enyl)-2,6-dimethyl-1-phenyl-2,3,4,9-tetrahydro-1H-pyrido[3,4-b]indole], the inhibition at 1 µM in assay [1] (setting [4]) is 8%; in assay [2] (setting [5]) it was -2%.
